The results in this text go back to PubChem BioAssay (NCI).

SMILES strings stand for the structures.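 Five compound concentrations were applied to cells in 96-well plates for 48 hours; endpoints were derived by simple linear interpolation of the resulting dose-response curve. GI50: concentration for 50% inhibition of growth. Definition used: TGI = concentration required for complete inhibition of growth.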

Some test systems named below: IGROV1 ovarian; M14 melanoma; NCI-H226 lung; OVCAR-3 ovarian; SF-268 CNS; SK-MEL-2 melanoma; SK-MEL-28 melanoma; SNB-19 CNS; TK-10 renal; UO-31 renal.
Assay in all cases: growth of human tumour cells (NCI), 48 h

Consider `O=C1c2ccccc2-c2c1c1c(O)cccc1n2Cc1ccccn1`, for which the GI50 in the test on IGROV1 ovarian was 88.6 µM; in the test with M14 melanoma it was 70.7 µM; with NCI-H226 lung it was 12.8 µM; with OVCAR-3 ovarian it was 20.1 µM; with SF-268 CNS, 83.5 µM; in the test with SK-MEL-2 melanoma, over 100 µM. For the same compound, the GI50 in the test on SK-MEL-28 melanoma was over 100 µM; with SNB-19 CNS it was over 100 µM; with TK-10 renal, 28.9 µM; in the test on UO-31 renal, over 100 µM. The TGI was over 100 µM with IGROV1 ovarian; over 100 µM in the test with M14 melanoma; 65.3 µM with NCI-H226 lung; 69.4 µM with OVCAR-3 ovarian; over 100 µM with SF-268 CNS; over 100 µM in the test on SK-MEL-2 melanoma. For the same compound, the TGI with SK-MEL-28 melanoma was over 100 µM; with SNB-19 CNS, over 100 µM; with TK-10 renal, 93.2 µM; in the test with UO-31 renal, over 100 µM.
With `CCc1ccc(C(=Nc2ccc(N(C)C(=O)CN3CCN(C)CC3)cc2)c2c(O)[nH]c3ccc(C(=O)OC)cc23)cc1`, the GI50 was 0.0714 µM in the test on IGROV1 ovarian; 0.368 µM in the test on M14 melanoma; 0.977 µM with NCI-H226 lung; 0.538 µM with OVCAR-3 ovarian; 1.18 µM in the test on SF-268 CNS; 1.23 µM in the test on SK-MEL-2 melanoma. Also, the GI50 in the test with SK-MEL-28 melanoma is 1.17 µM; in the test on SNB-19 CNS, 0.775 µM; with TK-10 renal it was 0.233 µM; with UO-31 renal, 0.287 µM. In addition, the TGI in the test with IGROV1 ovarian is 1.11 µM; in the test with M14 melanoma, 1.69 µM; in the test with NCI-H226 lung, 2.71 µM; in the test on OVCAR-3 ovarian it was 1.96 µM; with SF-268 CNS, 2.8 µM; with SK-MEL-2 melanoma it was 2.83 µM. Moreover, the TGI turned out to be 2.42 µM with SK-MEL-28 melanoma, 2.09 µM in the test on SNB-19 CNS, 2.11 µM with TK-10 renal and 1.36 µM in the test on UO-31 renal.
Turning to `Fc1cccc(-n2ccc(-c3ccccc3)nc2=S)c1`, the GI50 with IGROV1 ovarian is 25.5 µM; in the test on M14 melanoma it was 73 µM; in the test on NCI-H226 lung, 18.1 µM; in the test on OVCAR-3 ovarian, 19 µM; in the test on SF-268 CNS, 32.3 µM; in the test on SK-MEL-2 melanoma, over 100 µM. For the same compound, the GI50 is 71.9 µM in the test on SK-MEL-28 melanoma, 12.9 µM in the test with SNB-19 CNS, 18.2 µM with TK-10 renal and 15.1 µM in the test with UO-31 renal. For the same compound, the TGI was over 62.2 µM with IGROV1 ovarian; over 100 µM with M14 melanoma; 36.5 µM in the test with NCI-H226 lung; 40.6 µM with OVCAR-3 ovarian; over 100 µM in the test on SF-268 CNS; over 100 µM in the test with SK-MEL-2 melanoma. Moreover, the TGI with SK-MEL-28 melanoma was over 100 µM; in the test with SNB-19 CNS, over 59.7 µM; in the test on TK-10 renal, 36 µM; in the test with UO-31 renal, 30 µM.
Turning to `CC(=[N-])N1CCC[C@@H](Nc2c3ccccc3nc3ccccc23)C1.[Cl][Pt].[NH-]CCC[NH-]`, the GI50 is 0.577 µM in the test on IGROV1 ovarian; 3.47 µM with M14 melanoma; 0.0328 µM in the test with NCI-H226 lung; 0.763 µM with OVCAR-3 ovarian; 3.68 µM with SF-268 CNS; 2.28 µM in the test on SK-MEL-2 melanoma. The GI50 in the test with SK-MEL-28 melanoma is 0.21 µM; in the test with SNB-19 CNS it was 1.49 µM; in the test on TK-10 renal, 2.76 µM; in the test with UO-31 renal, 1.78 µM. Further, the TGI is over 100 µM with IGROV1 ovarian; 23.7 µM in the test on M14 melanoma; 0.2 µM in the test on NCI-H226 lung; over 41.6 µM in the test with OVCAR-3 ovarian; over 100 µM in the test with SF-268 CNS; 7.23 µM in the test on SK-MEL-2 melanoma. Further, the TGI with SK-MEL-28 melanoma is 2.31 µM; with SNB-19 CNS, over 100 µM; with TK-10 renal, over 46.1 µM; in the test on UO-31 renal, 9.21 µM.
For `CC(=O)O[C@H]1[C@@H]2OC(=O)C(CSc3ccccc3)[C@@H]2C[C@H]2O[C@]2(C)CC/C=C(\C)CCC[C@@H]1C` (stereo not given in full), the GI50 in the test on IGROV1 ovarian is 3.05 µM; in the test on M14 melanoma, 2.13 µM; in the test on NCI-H226 lung it was 4.69 µM; in the test with OVCAR-3 ovarian, 1.87 µM; with SF-268 CNS, 3.51 µM; in the test with SK-MEL-2 melanoma, 3.11 µM. Besides, the GI50 in the test with SK-MEL-28 melanoma was 1.91 µM; with SNB-19 CNS, 11.9 µM; in the test on TK-10 renal, 1.65 µM; in the test with UO-31 renal, 1.96 µM. Further, the TGI in the test with IGROV1 ovarian came out at 9.38 µM; in the test with M14 melanoma, 5.37 µM; in the test on NCI-H226 lung, 18 µM; in the test on OVCAR-3 ovarian it was 4.11 µM; with SF-268 CNS, 13.3 µM; in the test on SK-MEL-2 melanoma, 8.69 µM. The TGI in the test with SK-MEL-28 melanoma came out at 3.93 µM; in the test with SNB-19 CNS, 62.8 µM; in the test on TK-10 renal, 3.74 µM; in the test with UO-31 renal, 5.26 µM.
Regarding `CC1=C(/C=C/C(C)=C/C=C/C(C)=C/C(=O)O)C(C)(C)CCC1`, the TGI is over 100 µM with IGROV1 ovarian; 71.5 µM in the test on M14 melanoma; 72.6 µM with NCI-H226 lung; 63.9 µM with OVCAR-3 ovarian; over 75.1 µM in the test with SF-268 CNS; 48.8 µM in the test on SK-MEL-2 melanoma. In addition, the TGI in the test with SK-MEL-28 melanoma was over 82.2 µM; with SNB-19 CNS, over 84.6 µM; with TK-10 renal, over 100 µM; in the test with UO-31 renal, over 74.7 µM.
Take `CC1(N)CCN(c2cnc(-c3cccc(Cl)c3Cl)c(N)n2)CC1`: the GI50 in the test on IGROV1 ovarian was 6.48 µM; in the test on M14 melanoma, 16.4 µM; with NCI-H226 lung it was 3.2 µM; with OVCAR-3 ovarian, 35.1 µM; with SF-268 CNS, 22.7 µM; with SK-MEL-2 melanoma it was 20.1 µM. Moreover, the GI50 was 16.3 µM in the test on SK-MEL-28 melanoma, 7.63 µM in the test on SNB-19 CNS, 2.8 µM with TK-10 renal and 3.3 µM in the test with UO-31 renal. In addition, the TGI with IGROV1 ovarian is over 100 µM; in the test on M14 melanoma it was 33.2 µM; in the test on NCI-H226 lung, over 100 µM; in the test with OVCAR-3 ovarian, over 100 µM; in the test on SF-268 CNS it was over 100 µM; in the test with SK-MEL-2 melanoma, 46.4 µM. Further, the TGI in the test on SK-MEL-28 melanoma is 32.3 µM; in the test with SNB-19 CNS, over 100 µM; in the test with TK-10 renal, 53.2 µM; in the test on UO-31 renal, 17.9 µM.
As to `CCCCCCCCCNC(=O)/C=C/c1ccc(O)c(O)c1`, the GI50 in the test with IGROV1 ovarian was 1.1 µM; with M14 melanoma it was 12.2 µM; in the test with NCI-H226 lung, 10.4 µM; with OVCAR-3 ovarian it was 5.95 µM; with SF-268 CNS, 10.9 µM; in the test with SK-MEL-2 melanoma, 17.3 µM. Also, the GI50 was 19.7 µM with SK-MEL-28 melanoma, 21.4 µM with SNB-19 CNS, 11.1 µM with TK-10 renal and 1.42 µM in the test on UO-31 renal. Besides, the TGI with IGROV1 ovarian came to 5.49 µM; with M14 melanoma, 26.7 µM; with NCI-H226 lung, 25.5 µM; in the test with OVCAR-3 ovarian it was 24.3 µM; in the test with SF-268 CNS, 31.9 µM; in the test with SK-MEL-2 melanoma it was 37.2 µM. The TGI in the test on SK-MEL-28 melanoma is over 100 µM; in the test on SNB-19 CNS, 50.3 µM; in the test on TK-10 renal it was 39.7 µM; in the test with UO-31 renal it was 14.9 µM.
